# Key:
# PI3Kalpha = target: T1, PI3Kalpha (Homo sapiens, UniProt P42336); assay: Cell-free kinase assay PI3K-ALPHA; type: biochemical
# T1 construct: purchased Upstate #14-602
# Description: (§1) The inhibitory effect of the compounds of the invention was tested on various human serine/threonine kinases, tyrosine kinases and lipid kinases in enzymatic assays. Recombinant human kinases, for example PI3Kalpha, -beta, -gamma, -delta, Erk2, p38alpha, p38gamma, Jnk1, Jnk2 and others were used, in some cases as full-length kinases, in some cases as truncated fragments—but at least consisting of the functional kinase domains. The commercial kinase proteins (Proqinase, Upstate) were used as recombinant fusion proteins with GST (glutathione S-transferase) tag or His tag. Depending on the substrate type, the different kinase reactions were quantified by suitable ALPHA™ beads (PerkinElmer).
# (§2) The kinase assays for PI3K and Erk are described in detail and selected test results are cited below. […] Subsequently, the kinase reaction was stopped by adding the ALPHA bead mix (10 μg/ml, #6760603/PerkinElmer), preincubated with 1 nM GST:Grp1 fusion protein (Upstate) and […] (#C-39B6/Echelon) in 50 mM Hepes, 50 mM NaCl, 50 mM EDTA and 0.1% BSA, and left to stand overnight. • b) Erk2-ALPHA: The test substance, 0.625 ng of Erk2 (#14-173, Upstate), 10 μM ATP and 15 nM biotinylated MBP (myelin basic protein) substrate were incubated on a 384-well Optiplate (Perkin Elmer) in a volume of 15 μl for 1 h in 25 mM Tris, 10 mM MgCl2, 0.1% Tween-20, 100 μM NaVO4, 2 mM DTT at pH 7.5. The kinase reaction was stopped by adding 10 μl of the ALPHA bead mix (10 μg/ml, #6760617/PerkinElmer), pre-incubated with anti-phospho MBP antibody (320 pM, #05-429/Upstate), in 25 mM Tris, 200 mM NaCl, 100 mM EDTA and 0.3% BSA, and left to stand overnight.
# (§3) The luminiscence was detected the next morning in a Fusion™ alpha instrument (Perkin Elmer).
# (§4) The calculation of % inhibition values per substance concentration was done by means of the following formula from the raw data determined in the Fusion™ alpha:
# (§5) The controls were determined 8 fold and the substance samples 2 fold. 0% control contained neither any ATP nor any substrate. The 100% control contained no test substance. The IC50 values were determined with GraphPadPrism.
# [1] = Cell-free kinase assay Erk2-ALPHA; type: biochemical, human; conditions: cell-free kinase assay; MAPK = Erk2, p38alpha, Jnk1+Jnk2 of Table 1
# Description: as §1, §2, §3, §4, §5
# Erk2 = target: T2, Erk2 (Mus musculus, UniProt P63085); assay: Cell-free kinase assay Erk2-ALPHA; type: biochemical, human; conditions: 10 μM ATP
# T2 construct: purchased Upstate #14-173
# T2 sequence (P63085 whole entry): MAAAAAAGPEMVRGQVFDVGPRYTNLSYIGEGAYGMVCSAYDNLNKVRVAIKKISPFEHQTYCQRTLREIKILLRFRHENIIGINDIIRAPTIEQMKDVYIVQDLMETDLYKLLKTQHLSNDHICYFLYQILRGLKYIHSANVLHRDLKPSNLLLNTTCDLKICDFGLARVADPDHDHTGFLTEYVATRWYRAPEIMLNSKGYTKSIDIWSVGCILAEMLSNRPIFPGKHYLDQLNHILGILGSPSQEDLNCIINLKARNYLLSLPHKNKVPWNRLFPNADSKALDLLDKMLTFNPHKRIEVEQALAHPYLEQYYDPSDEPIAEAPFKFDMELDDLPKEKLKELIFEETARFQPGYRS
# Description: as §1, §2, §3, §4, §5
# MDA-MB468 = assay: XTT assay, anti-proliferative activity, MDA-MB468; type: cell-based; conditions: Homo sapiens, MDA-MB-468; 45 h incubation
# Description: (§6) The principle of this test is based on the intracellular reduction of the tetrazolium dye XTT (sodium 3′-[1-(phenylaminocarbonyl)-3,4-tetrazolium]bis(4-methoxy-6-nitro)benzenesulphonic acid, Sigma) to a formazan dye by mitochondrial dehydrogenases. The dye is formed only by metabolically active cells. Its photometrically measurable intensity is a quantitative indicator for the presence of living cells. The reduction in the dye formation as a result of incubation of the cells with substances serves as a parameter for the anti-proliferative activity.
# (§7) The tumour cell lines (ATCC) were seeded in 96-well microtitre plates in a defined cell count (5000 cells/well for Hct116; 10000 cells/well for MDA MB468), and incubated overnight at 37° C., 5% CO2 and 95% air humidity. The test substances were made up as stock solutions (10 mM) in DMSO. […] The cell plates were then incubated for 45 h at 37° C., 5% CO2 and 95% air humidity.
# (§8) For the detection reaction, the XTT substrate was mixed with PMS (N-methyldibenzopyrazine methylsulphate, Sigma) and added to the cells, to result in a final concentration of 325 μg of XTT/ml and 2.5 μg PMS/ml. The mixture was then incubated for 3 h at 37° C., 95% air humidity. Subsequently the formazan salt formed by cellular dehydrogenases was quantified at an absorption of 490 nm.
# (§9) The evaluation of the % inhibition values was done by means of the following formula from the values for the optical densities measured in each case at 490 nm:
# (§10) The controls were determined 8 fold, the substance samples 2 fold. 0% control contained no cells and the 100% control contained no test substance. The EC50 values were determined with GraphPadPrism.
# Hct116 = assay: XTT assay, anti-proliferative activity, Hct116; type: cell-based; conditions: Homo sapiens, HCT-116; 45 h incubation
# Description: as §6, §7, §8, §9, §10
# Jnk1 + Jnk2 = tested on: T3, Jnk1 + Jnk2; assay: Cell-free kinase assay (ALPHA technology) Jnk1 + Jnk2; type: biochemical, human; conditions: 10 μM ATP
# T3 construct: fused on or other part: GST tag or His tag (commercial recombinant fusion proteins from Proqinase or Upstate)
# Description: as §1, §2, §3, §4, §5
# p38alpha = p38alpha (Homo sapiens, UniProt Q16539); assay: Cell-free kinase assay (ALPHA technology) p38alpha; type: biochemical; conditions: 10 μM ATP
# p38alpha, sequence (Q16539 whole entry): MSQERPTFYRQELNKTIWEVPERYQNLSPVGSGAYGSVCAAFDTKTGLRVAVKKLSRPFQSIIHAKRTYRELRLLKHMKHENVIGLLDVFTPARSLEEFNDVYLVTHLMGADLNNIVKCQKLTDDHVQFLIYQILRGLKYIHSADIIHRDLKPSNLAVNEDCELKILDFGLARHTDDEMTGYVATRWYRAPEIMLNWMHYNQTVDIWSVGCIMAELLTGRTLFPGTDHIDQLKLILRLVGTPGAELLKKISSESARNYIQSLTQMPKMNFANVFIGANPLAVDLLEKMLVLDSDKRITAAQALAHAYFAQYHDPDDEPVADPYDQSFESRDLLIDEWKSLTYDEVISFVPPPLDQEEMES
# Description: as §1, §2, §3, §4, §5
# Phospho-Akt (Ser 473) = assay: Cellular substrate phosphorylation (Western blotting), PI3K →pAkt; type: cell-based, human; conditions: for inhibition at 50 µM: Homo sapiens, 5 h; for inhibition of cellular phospho-Akt / PI3K-Akt pathway, in words: Western blotting, concentrations of 5-50 μM
# Description: (§11) This method enables a statement of whether the kinase modulator investigated achieves the desired effect in a cellular context too, i.e., in this case, a substrate protein downstream of the target kinase is examined for its phosphorylation status. To this end, the cells incubated with substance are lysed and the overall protein is separated on a reducing polyacrylamide gel. Subsequently, the proteins are transferred to a PVDF membrane by Western blotting and the substrate bands sought are made visible with specific antibodies and a suitable detection method. The substrate proteins down-stream of the target kinases are detected simultaneously with an anti-phospho antibody which is specific in each case and a total antibody which recognizes the substrate total protein. The duplex technology of the ODYSSEY imager (LiCOR) enables this simultaneous measurement. The intensity of the total substrate bands is employed to normalize and quantify the phosphorylation inhibition or activation.
# (§12) Suitable tumor cell lines (e.g. BxPC3, Hct116 or MDA MB468) were seeded into 6-well microtitre plates in a defined cell count (e.g. 350 000 cells/well for BxPC3 and Hct116) in the particular standard complete media and then incubated overnight at 37° C., 5% CO2 and 95% air humidity. Afterwards, the cells were incubated for 24 h under serum-reduced conditions, i.e. in the particular medium except at only 0.25% serum. The test substances were made up as stock solutions (10 mM) in DMSO and incubated with the cells at final concentrations of 5, 15.8 and 50 μM for 5 h. This was followed by cell lysis in 25 mM Tris, 150 mM NaCl, 10 mM sodium pyrophosphate, 2 mM EGTA, 25 mM beta-glycerophosphate, 25 mM NaF, 10% glycerol, 0.75% NP-40, 100 μM NaVO4 buffer. After protein quantification using the BCA (bicinchonic acid protein assay kit, Sigma) assay, amounts of protein of about 20 μg per track were separated on a Lämmli polyacrylamide gel and then transferred onto a PVDF membrane (Millipore) by semi-dry Western blotting at 0.8 mA/cm^2 for 1 h. This was followed by prehybridization of the membrane for 1 hour in I-block reagent (Applied Biosystems) and overnight simultaneous incubation with the specific antibodies. […] After the membrane had been washed, the secondary antibodies were incubated with anti-rabbit IR Dye 800 (#611-732-127, Rockland) for the phospho antibodies and anti-goat Alexa Fluor 680 (#A-21081, […]) for the total protein antibodies. After incubation for 30 min at room temperature in the dark, the hybridization of the detection antibody was detected on the membrane by scanning in an ODYSSEY imager (LiCOR).
# Phospho-p90RSK (S380) = assay: Cellular substrate phosphorylation (Western blotting), Erk →pRsk; type: cell-based, human; conditions: for inhibition at 50 µM: Homo sapiens, 5 h; for inhibition of phospho-Rsk / Raf-Mek-Erk pathway, in words: Western blotting, concentrations of 5-50 μM
# Description: as §11, §12
# T1 sequence (P42336 whole entry): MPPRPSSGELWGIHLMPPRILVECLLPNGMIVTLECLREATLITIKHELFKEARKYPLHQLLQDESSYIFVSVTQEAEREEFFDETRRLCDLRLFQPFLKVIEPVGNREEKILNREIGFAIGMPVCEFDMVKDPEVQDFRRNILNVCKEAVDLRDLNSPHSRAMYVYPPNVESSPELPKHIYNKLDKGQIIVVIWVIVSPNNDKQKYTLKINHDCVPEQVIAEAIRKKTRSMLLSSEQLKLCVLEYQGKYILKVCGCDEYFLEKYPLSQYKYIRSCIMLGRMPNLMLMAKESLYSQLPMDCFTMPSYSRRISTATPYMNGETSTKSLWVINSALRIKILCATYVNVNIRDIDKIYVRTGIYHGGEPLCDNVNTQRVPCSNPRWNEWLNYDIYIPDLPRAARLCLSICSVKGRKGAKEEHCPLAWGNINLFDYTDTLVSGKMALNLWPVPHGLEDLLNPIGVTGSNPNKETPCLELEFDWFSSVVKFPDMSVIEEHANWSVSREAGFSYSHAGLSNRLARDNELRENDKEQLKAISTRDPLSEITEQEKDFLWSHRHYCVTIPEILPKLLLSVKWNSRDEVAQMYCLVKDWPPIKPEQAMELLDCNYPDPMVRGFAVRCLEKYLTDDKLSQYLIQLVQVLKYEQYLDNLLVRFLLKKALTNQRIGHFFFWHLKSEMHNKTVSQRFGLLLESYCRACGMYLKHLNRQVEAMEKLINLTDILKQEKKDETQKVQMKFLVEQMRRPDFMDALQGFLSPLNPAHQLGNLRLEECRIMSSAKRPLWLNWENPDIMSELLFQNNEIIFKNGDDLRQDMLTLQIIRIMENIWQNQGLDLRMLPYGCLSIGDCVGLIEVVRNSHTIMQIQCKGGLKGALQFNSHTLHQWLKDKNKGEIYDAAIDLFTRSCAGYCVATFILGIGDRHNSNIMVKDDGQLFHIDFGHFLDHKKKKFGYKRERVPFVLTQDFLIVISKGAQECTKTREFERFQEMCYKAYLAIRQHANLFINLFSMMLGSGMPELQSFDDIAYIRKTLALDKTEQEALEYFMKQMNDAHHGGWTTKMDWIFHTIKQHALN
# T1 sequence (P27986 whole entry partner): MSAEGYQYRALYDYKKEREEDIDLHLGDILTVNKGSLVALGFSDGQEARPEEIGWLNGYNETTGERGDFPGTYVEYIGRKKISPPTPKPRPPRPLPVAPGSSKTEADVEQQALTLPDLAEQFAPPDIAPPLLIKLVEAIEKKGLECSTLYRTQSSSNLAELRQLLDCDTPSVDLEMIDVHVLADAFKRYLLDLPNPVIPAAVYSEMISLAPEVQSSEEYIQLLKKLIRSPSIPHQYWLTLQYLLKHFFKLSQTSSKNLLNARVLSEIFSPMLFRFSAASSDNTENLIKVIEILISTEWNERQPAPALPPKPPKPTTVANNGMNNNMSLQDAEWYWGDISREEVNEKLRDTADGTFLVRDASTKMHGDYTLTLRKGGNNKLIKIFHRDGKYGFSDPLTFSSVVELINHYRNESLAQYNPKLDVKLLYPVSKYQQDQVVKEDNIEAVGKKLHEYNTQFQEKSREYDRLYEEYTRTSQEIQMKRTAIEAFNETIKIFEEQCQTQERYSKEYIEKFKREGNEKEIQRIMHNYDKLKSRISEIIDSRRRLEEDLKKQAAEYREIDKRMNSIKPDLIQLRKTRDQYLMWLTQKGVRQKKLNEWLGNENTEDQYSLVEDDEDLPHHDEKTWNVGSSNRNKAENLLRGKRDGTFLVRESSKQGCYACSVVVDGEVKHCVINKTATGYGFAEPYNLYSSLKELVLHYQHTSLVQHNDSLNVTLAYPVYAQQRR
Structure (SMILES),"PI3K inhibition, in words (PI3Kalpha)","Erk2 / MAPK inhibition, in words [1]",IC50 (Erk2),EC50 (MDA-MB468),EC50 (Hct116),IC50 (Jnk1 + Jnk2),IC50 (p38alpha),inhibition at 50 µM (Phospho-Akt (Ser 473)),"inhibition of cellular phospho-Akt / PI3K-Akt pathway, in words (Phospho-Akt (Ser 473))",melting point,inhibition at 50 µM (Phospho-p90RSK (S380)),"inhibition of phospho-Rsk / Raf-Mek-Erk pathway, in words (Phospho-p90RSK (S380))"
"CCNC(=O)Nc1ccc2ncc(Nc3cccc(OC(F)F)c3)nc2n1 [Compound 73, 1-[3-(3-Difluoromethoxy-phenylamino)-pyrido[2,3-b]pyrazin-6-yl]-3-ethyl-urea]",PI3K inhibition,no or only moderate MAPK inhibition,> 100 µM,< 5 µM,< 5 µM,> 100 µM,> 10 µM,–,–,–,–,–
"CCNC(=O)Nc1ccc2ncc(-c3ccc(OC(C)=O)c(OC)c3)nc2n1 [Compound 54, Acetic acid 4-[6-(3-ethyl-ureido)-pyrido[2,3-b]pyrazin-3-yl]-2-methoxy-phenyl ester]",inhibition of PI3K,inhibition of PI3K and Erk2,< 0.5 µM,< 5 µM,< 5 µM,< 31.6 µM,> 100 µM,100%,inhibit both,227 to 229 °C,90%,inhibit both
"CCNC(=O)Nc1cnc2ccc(-c3ccc(O)c(OC)c3)nc2n1 [Compound 5, 1-Ethyl-3-[6-(4-hydroxy-3-methoxy-phenyl)-pyrido[2,3-b]pyrazin-3-yl]-urea]",low IC50 values against PI3K,–,> 100 µM,< 1 µM,< 2 µM,> 10 µM,> 100 µM,100%,total inhibition of cellular phospho-Akt at compound concentrations <50 μM,–,0%,phospho-Rsk is not inhibited
"CCNC(=O)Nc1ccc2ncc(-c3ccc(OC)c(O)c3)nc2n1 [Compound 46, 1-Ethyl-3-[3-(3-hydroxy-4-methoxy-phenyl)-pyrido[2,3-b]pyrazin-6-yl]-urea]",inhibition of PI3K,inhibition of PI3K and Erk2,< 0.5 µM,< 10 µM,< 10 µM,< 1 µM,> 100 µM,40%,inhibit both,> 270 °C,100%,inhibit both
"CCNC(=O)Nc1ccc2ncc(Nc3ccccc3O)nc2n1 [Compound 55, 1-Ethyl-3-[3-(2-hydroxy-phenylamino)-pyrido[2,3-b]pyrazin-6-yl]-urea]",PI3K inhibition,no or only moderate MAPK inhibition,> 100 µM,< 5 µM,< 5 µM,> 100 µM,< 10 µM,90%,cellular PI3K selectivity,243 to 246 °C,0%,do not block the Raf-Mek-Erk pathway
"CCNC(=O)Nc1ccc2ncc(Nc3ccc(O)c(C(=O)OC)c3)nc2n1 [Compound 50, 5-[6-(3-Ethyl-ureido)-pyrido[2,3-b]-pyrazin-3-ylamino]-2-hydroxy-benzoic acid methyl ester]",PI3K inhibition,no or only moderate MAPK inhibition,> 100 µM,< 10 µM,< 5 µM,> 100 µM,> 100 µM,100%,cellular PI3K selectivity,195 to 200 °C,0%,do not block the Raf-Mek-Erk pathway

# — US8536332B2, “Modulating signal transduction pathways with substituted pyridol [2,3-b] pyrazines” (Aeterna Zentaris GmbH, priority 2007, dated 2013)
